Structures can show the parent of a compound that is named as a salt.
How the values were obtained:
Assay type in all cases: physicochemical
[1] = Aldehyde impurity assessment: aqueous stock solutions exposed to air, HPLC of RRT = 0.38; details: 7.4 wt % detomidine HCl in water; for RRT = 0.38 content at 2 years: exposed to air at room temperature; for Initial RRT = 0.38 content: time zero
Description: Therefore, for further identification of the elusive impurity, new HPLC protocols for assaying detomidine HCl were developed. One protocol (“HPLC Protocol A”) comprised using a SunFire C8 column, 100Å, 3.5 μm, 4.6×150 mm column with an initial mobile phase of 70% Ammonium Phosphate buffer solution, pH 7.9 and 30% Acetonitrile, at a flow rate of 1.0 mL/min and UV detection at 220 nm. To remove late eluting peaks, the flush gradient shown in Table 5 was applied after each run. This HPLC protocol allowed for a resolution factor of 3.9 between detomidine and the unidentified impurity. The quantitation level (QL) for impurities and degradation products is 0.025%. The detection level (DL) for impurities and degradation products is 0.01%.
Stock solutions of 7.4 wt % detomidine HCl in water were prepared using material from Table 6, Batch #iv and v and the samples were then kept exposed to air at room temperature for 2 years.

[2] = Oxidation with potassium permanganate in aqueous solution, HPLC of RRT = 0.38; details: 3 hours after solution preparation
Description: A further sample of material from Table 6, Batch #v was reacted with potassium permanganate in aqueous solution. RRT=0.38 was found in the reaction product at 0.14% at 3 hours after solution preparation.

[3] = Hydration study of solid forms by DVS analysis
Description: Melting points (m.p.) of the intermediate detomidine free base and hydrochloride of Sample 5 measured in open capillary corresponded with the published literature and the DSC data and are presented in Table 4. In order to evaluate effect of humidity on different forms of detomidine, a hydration study was performed. Samples of detomidine free base and hydrochloride salt were subjected to DVS analysis. These observations are in accordance with the DVS results shown in FIGS. 1 and 2, for detomidine free base and detomidine HCl, respectively.
During the dehydration cycle, the monohydrate began to lose water at RH˜10% and converted into the anhydrate at RH=0%.

[4] = Solubility of solid forms in water (observation)

In the case of `Cc1cccc(Cc2cnc[nH]2)c1C.Cl.O` [Batch iv], the “RRT = 0.38 content at 2 years” value ([1]; listed as iv) is reported as 1% and the “Initial RRT = 0.38 content” value ([1]; listed as iv) is reported as 0.2%.

In the case of `Cc1cccc(Cc2cnc[nH]2)c1C.Cl.O` [Batch v], the “RRT=0.38 in the reaction product” value [2] is reported as 0.14%, the “RRT = 0.38 content at 2 years” value ([1]; listed as v) is reported as 0.02% and the “Initial RRT = 0.38 content” value ([1]; listed as v) is reported as “not detectable”.

For `Cc1cccc(Cc2c[nH]cn2)c1C.Cl` [Sample 2], the “water level absorbed, cKF” value ([3]; hydration of the anhydrous form) was 7.7%.

For `Cc1cccc(Cc2c[nH]cn2)c1C` [anhydrous detomidine HCl], the “RH at which the anhydrate absorbs water / transforms completely into the monohydrate” value ([3]; DVS) was 30-50% and the “RH at which the anhydrate did not absorb water” value ([3]; DVS) was under 30%.

For `Cc1cccc(Cc2c[nH]cn2)c1C` [detomidine HCl monohydrate], the “RH at which the monohydrate began to lose water” value ([3]; dehydration cycle, DVS) was about 10% and the “RH at which the monohydrate converted into the anhydrate” value ([3]; dehydration cycle, DVS) was 0%.

In the case of `Cc1cccc(Cc2c[nH]cn2)c1C` [detomidine free base, 4-[(2,3-dimethylphenyl)methyl]-1H-Imidazole], the solubility in water [4] is reported as “insoluble in water”, the hygroscopicity ([3]; DVS, 24.4° C. (FIG. 1)) is reported as “non-hygroscopic” and the water absorbed ([3]; at relative humidity (RH)>50%) is reported as “more than 1%”.

In the case of `Cc1cccc(Cc2c[nH]cn2)c1C` [detomidine hydrochloride], the solubility in water [4] is reported as “soluble”.
